Converted amounts (≈) assume the structure as drawn.
Columns and labels:
[1] = target: Vascular endothelial growth factor receptor 2 (Homo sapiens, UniProt P35968); assay: Inhibition of KDR
HUVEC [2] = assay: Antiproliferative activity against VEGF-induced HUVEC; type: functional, cell-based; details: Homo sapiens
HUVEC [3] = assay: Antiproliferative activity against FGF-induced HUVEC; type: functional, cell-based; details: Homo sapiens
[4] = Aqueous solubility in simulated intestinal fluid at pH 6.8; type: physicochemical

Vascular endothelial growth factor receptor 2, sequence (P35968 whole entry): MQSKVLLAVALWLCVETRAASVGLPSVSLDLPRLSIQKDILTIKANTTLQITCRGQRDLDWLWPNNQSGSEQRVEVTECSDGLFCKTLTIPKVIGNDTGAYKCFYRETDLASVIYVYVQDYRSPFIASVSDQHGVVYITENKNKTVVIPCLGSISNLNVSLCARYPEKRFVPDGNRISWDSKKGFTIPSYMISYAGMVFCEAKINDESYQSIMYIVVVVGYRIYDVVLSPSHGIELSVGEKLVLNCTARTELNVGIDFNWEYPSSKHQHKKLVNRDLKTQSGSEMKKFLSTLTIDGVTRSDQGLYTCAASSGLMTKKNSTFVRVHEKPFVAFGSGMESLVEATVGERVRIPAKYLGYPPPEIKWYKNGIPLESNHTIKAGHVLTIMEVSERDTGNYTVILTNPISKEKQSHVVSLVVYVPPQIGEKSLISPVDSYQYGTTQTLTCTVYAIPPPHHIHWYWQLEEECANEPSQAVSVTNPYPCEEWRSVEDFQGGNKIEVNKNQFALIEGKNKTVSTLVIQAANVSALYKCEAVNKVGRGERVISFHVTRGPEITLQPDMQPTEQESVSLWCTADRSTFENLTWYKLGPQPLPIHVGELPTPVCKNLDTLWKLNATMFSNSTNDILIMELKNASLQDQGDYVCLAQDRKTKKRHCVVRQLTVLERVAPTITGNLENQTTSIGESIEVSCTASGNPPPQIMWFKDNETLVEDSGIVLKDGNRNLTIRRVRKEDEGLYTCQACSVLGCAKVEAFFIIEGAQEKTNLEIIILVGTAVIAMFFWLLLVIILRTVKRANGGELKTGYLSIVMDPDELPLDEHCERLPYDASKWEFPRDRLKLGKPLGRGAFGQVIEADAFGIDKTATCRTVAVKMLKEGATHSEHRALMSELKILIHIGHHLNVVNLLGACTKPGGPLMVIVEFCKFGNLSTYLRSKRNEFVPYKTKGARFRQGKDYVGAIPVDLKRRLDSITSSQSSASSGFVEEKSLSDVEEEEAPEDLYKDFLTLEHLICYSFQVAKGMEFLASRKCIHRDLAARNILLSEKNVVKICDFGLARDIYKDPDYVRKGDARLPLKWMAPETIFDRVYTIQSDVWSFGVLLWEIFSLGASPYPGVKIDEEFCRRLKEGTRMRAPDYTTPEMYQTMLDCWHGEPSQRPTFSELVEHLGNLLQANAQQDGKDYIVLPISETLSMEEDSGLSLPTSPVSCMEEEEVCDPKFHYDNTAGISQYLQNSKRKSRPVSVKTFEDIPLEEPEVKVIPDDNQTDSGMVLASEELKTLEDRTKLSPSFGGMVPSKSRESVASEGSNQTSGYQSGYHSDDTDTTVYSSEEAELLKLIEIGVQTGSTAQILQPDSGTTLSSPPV

SMILES	IC50 [1] [nM]	solubility [4] [µg/mL]	IC50 (HUVEC [2]) [nM]	IC50 (HUVEC [3]) [nM]
COc1cc2nccc(CN3CCc4c(cccc4C(=O)Nc4ccc(C(C)(C)C)cc4)C3)c2cc1OC	1	34 (≈ 66.7 µM)	6	> 1140
COCCNC(=O)c1cccc2c1CCN(Cc1ccnc3cc(OC)c(OC)cc13)C2	3000	> 200	–	–
COc1cc2nccc(Oc3ccc4c(C(=O)Nc5ccc(Cl)cc5)cccc4c3)c2cc1OC	–	–	–	> 1140

Further lines, with some results ahead:

IC50 [1] [nM]	solubility [4] [µg/mL]	SMILES	IC50 (HUVEC [2]) [nM]	IC50 (HUVEC [3]) [nM]
165	12 (≈ 24.6 µM)	COc1cc2nccc(CN3CCc4c(cccc4C(=O)Nc4ccc(Cl)cc4)C3)c2cc1OC	–	–
3	24 (≈ 42.1 µM)	COc1cc2nccc(CN3CCc4c(C(=O)Nc5ccc(Cl)c(C(F)(F)F)c5)cccc4C3=O)c2cc1OC	22	> 1140

Source: ChEMBL document CHEMBL1155071, “Discovery of novel 1,2,3,4-tetrahydroisoquinolines and 3,4-dihydroisoquinoline-1(2H)-ones as potent and selective inhibitors of KDR: synthesis, SAR, and pharmacokinetic properties” (Bioorg Med Chem Lett, 2008)
